Here are results for one molecule from patent publication US9637770B2, “Methods and devices for handling biofouling” (MEKOROT WATER COMPANY, LTD., priority 2011, dated 2017).

Data set [1] has as its system biofilm on the membrane surface. As to the kind of experiment: Normalized permeate flow of the pilot plant with low dose of chloramines. The procedure: FIG. 7 provides a graph showing the normalized permeate flow as a function of operation time for a pilot plant with low dose of chloramines as determined with the bio-sensor test. Also examined was the effect of preventing the development of biofilm on the membrane surface when 4.2 mg/L hypochlorite were added.

For data set [2], the system named is microorganisms. The experiment in a line: Biofouling index on the biosensor after 24 h circulation of water dosed with hypochlorite. The format is cell-based. The procedure:
The change in color on the biosensor was determined for each water sample in six repetitions as described above.
The biofouling Index was determined as follows: Biofouling Index=100×PPP×(1−PPP)+(100−LL)×PPP
For simplicity, the Biofouling Index was translated into a biofouling score, A, B, C, . . . F, according to ranges of biofouling, with lower biofouling range, representing low biofouling identified as score A. The correlating score is identified in Table 7.
Hypochlorite was dissolved to obtain a stock solution of 140 mg/L. Dilutions of this stock solution were as detailed in Table 9. The dilutions were injected into the water circulating in the biosensing apparatus and the total chlorine concentration was measured for each dilution. As control, no hypochlorite was added.
Circulation conditions: flow: 90 ml/min; circulation container volume: 2 L; duration of circulation: 24 hours at a temperature of 35° C.

The test system of data set [3] is biofilm on RO membrane. As to the kind of experiment: Biofilm grown on RO membranes for 15 days with input water containing chloramines, measured with CLSM. Format: cell-based. The procedure: Biofilm was allowed to grow on the surface of miniature RO membranes (ESNA1-LF, Hydranautics, USA), equipped within a device having the membrane held within a closed chamber, the chamber comprising a feed inlet, brine outlet and permeate outlet for fluids, where the pressure obtain from the desalination pilot pressurized flows.
For biofilm analysis a 5×5 mm membrane segment was taken from each of the tested membranes. Each segment was inserted into an Eppendorf test tube comprising 2 ml 0.24% sterilized TRIS solution (pH 7.2) and the test tubes were turned upside down gently several time. […]
The staining of the RO membranes with SYTO9 and Tetramethylrhodamine, provided information about the presence and quantity of microorganisms and the extracellular polymeric substance (EPS), respectively. The CLSM images were scanned and analyzed with PHLIP software (http://sourceforge.net/projects/phlip/) which enabled quantization of CLSM data with respect to the biovolume of the biofilm. […]
In addition, water from sampling Point No. 3 (SP3) was allowed to flow through miniature membrane facilities (as described above) in parallel, for 15 days in order to allow growth of biofilm on the surface of the membranes. After 15 days, the membranes were treated and analyzed as described above in order to determine the resulting biovolume. […]

On to `OCl` [Sodium hypochlorite, sodium hypochlorite], for which the “Effect on normalized permeate flow” value in data set [1] (4.2 mg/L hypochlorite, 320 hours, Stage I, Stage II and Stage III) was “no decrease in permeate flow”. Also, the “Effect on biofouling on the membranes” value in data set [1] (treatment with hypochlorite, data not shown) was “reduced biofouling on the membranes”. The “Amount of hypochlorite sufficient to prevent biofouling (close to zero biofouling)” value in data set [2] (24 h circulation, 35° C.) stood at 4.2 mg/L. For the same molecule, in data set [2] (all tested amounts of hypochlorite, control C, 24 h circulation), the “Biofouling index after addition of hypochlorite (drop from control level C)” value is on record as “B (biofouling index <6)”. Also, the Biofouling index result in data set [2] (sodium hypochlorite 0.7 mg/l, total chloramines 0.17 mg/l, 24 h circulation, 35° C.) is reported as “B (biofouling index <6)”; in data set [2] (sodium hypochlorite 1.4 mg/l, total chloramines 0.29 mg/l, 24 h circulation, 35° C.), “B (biofouling index <6)”; in data set [2] (sodium hypochlorite 2.1 mg/l, total chloramines 0.45 mg/l, 24 h circulation, 35° C.) it was “B (biofouling index <6)”; in data set [2] (sodium hypochlorite 2.8 mg/l, total chloramines 0.94 mg/l, 24 h circulation, 35° C.), “B (biofouling index <6)”; in data set [2] (sodium hypochlorite 2.8 mg/l, total chloramines 1.0 mg/l, 24 h circulation, 35° C.), “B (biofouling index <6)”; in data set [2] (sodium hypochlorite 4.2 mg/l, total chloramines 1.42 mg/l, 24 h circulation, 35° C.), “B (biofouling index <6)”. Further, the Biofouling index result in data set [2] (sodium hypochlorite 4.2 mg/l, total chloramines 1.48 mg/l, 24 h circulation, 35° C.) is “B (biofouling index <6)”; in data set [2] (sodium hypochlorite 4.6 mg/l, total chloramines 1.63 mg/l, 24 h circulation, 35° C.), “B (biofouling index <6)”; in data set [2] (sodium hypochlorite 5.6 mg/l, total chloramines 1.86 mg/l, 24 h circulation, 35° C.), “B (biofouling index <6)”. In addition, in data set [2] (total chlorine concentration of 1.4 mg/L and more), the “Biofouling index (numerical, FIG. 4)” value is “close to zero”. Moreover, the “Biovolume of biofilm on the membrane relative to that without hypochlorite” value in data set [3] (4.2 mg/L hypochlorite (1.5 mg/L chloramines), injected 4 hours per day, Stage I input water) is listed as “about ⅕”. In addition, in data set [3] (hypochlorite added (chloramines)), the “Thickness of biofilm relative to that in the absence of chloramines” value is on record as “about ⅕”.
